Test results taken from patent US20190001106A1, “THERAPEUTIC DELIVERY DEVICE” (priority 2013, published 2019).

Assay: preservation of doxorubicin efficacy in the implanted construct
Assay type: in vivo
Conditions: in STID-Dox-PLGA85/15 construct, 3 weeks inside an animal body about 37C

efficacy of doxorubicin after residence in the construct: efficacy is still preserved
SMILES: COc1cccc2c1C(=O)c1c(O)c3c(c(O)c1C2=O)C[C@@](O)(C(=O)CO)C[C@@H]3O[C@H]1C[C@H](N)[C@H](O)[C@H](C)O1 [doxorubicin, Doxorubicin]
